In paper PMC11984388, “A brain-accessible peptide modulates stroke inflammatory response and neurotoxicity by targeting BDNF-receptor TrkB-T1 specific interactome” (Theranostics, 2025):
Where two headings read alike, the source gives them in different places. Residues, ends and D or L forms follow the SMILES beside them. *: point of attachment. Biotin = O=C1N[C@H]2[C@H](CS[C@H]2CCCCC(=O)*)N1

Tests used:
RhoGDI = test: Western blot of total RhoGDI levels; type: cell-based, rat; conditions: peptide 25 µM 30 min, mean, n = 6-7 (Fig S3)
Experimental: Ce lls were lyse d in RI P A buffer (50 mM Tris-HCl pH 8.0, 150 mM NaC l, 1% sodium deoxycholate , 1% NP-40, 0.1% SDS, 1 mM DT T), supple me nted with protease and phospha tase inhibitors as above, for 30 min at 4 °C. Then, cell lysa te s were sonic ated using a Bioruptor apparatus and centrifuga ted at 4 °C for 20 min at 10,000 rpm. The protein conce ntration in lysa te s was es tablished with BC A Prote in As say Kit (Thermo Fisher) follow ed by 5 min denaturalization in SDS-sa mple buffer at 95º. Equal amounts of total lysa te s were resolved in Tris-Glycine SDS-PAGE and transferre d to a nitroc ellulos e membrane (GE Healthca re ) in 25 mM Tris HCl pH 8.3, 250 mM glycine and 10% methanol, using an electr ic curre nt of 400 mA for 70 min. After transfer, membranes were sta ine d with a Ponceau S solution to chec k for its effic acy. Then, membranes were blocked for 30 min with a 5% non-fat […]
dry milk solution in Tris Buffere d Saline-Tween (TBS-T, 20 mM Tris HCl pH 7.5, 137 mM NaC l, 0.05% Tween-20) and incubated overnight at 4°C with prima ry antibodies . Next, membranes were was hed with TBS-T and incubated with the appropria te anti-rabbit or anti-mouse peroxidase-conjugated se condary antibodies (Bethyl) for 1 h. To conclude, immunore activity was detecte d using Clar ity Wes ter n ECL Blotting Substrate (BioRad) and band intensity was quantified by dens itome tric analys is (Photos hop, Adobe). Levels of the protein of interest were normalized using those of neuron- spe cific enolas e (NSE) present in the sa m e sa mple and express ed relative to values obtained in their respec tive controls, arbitrarily given a 100% value. NSE was use d as a neuronal loading control sinc e it is not af fe cted by NM DA treatment. Exceptionally, levels of TrkB -T1 were normalized to those of ß- actin in the comparison of prima ry mixed cultures and those of as trocytes . Multiple independent experiments were car r ied out and quantitated as detailed in the figure legends .
Cell transfection and gene reporter ass ays
Plasmids contained minimal CREB or MEF2 response elements upstream firefly luciferase reporter gene (respectively, pCRE or pMEF2; see details in Supplementary Table 1). Primary cultures, without the AraC treatment, were transfected at 11 DIVs with 0.4 µg of plasmids using Lipofectamine 2000. […] Protein extracts were obtained using Passive Lysis Buffer (Promega, Cat# E1941) and luciferase activity was detected by a luminometer (GloMax 96 microplate luminometer, Promega), using REAP buffer (25 mM glycylglycine, 15 mM SO4Mg, 4 mM EGTA, 15 mM potassium phosphate pH 7.8, 3.3 mM ATP, 1 mM DTT, 75 µM luciferin). […]

[1] = tested on: NeuN+ neurons and GFAP+ astrocytes of mixed cortical cultures; test: Peptide visualization in primary cultures (Fluorescein Avidin D); type: cell-based, rat; conditions: peptide 25 µM, 30 min; Fluorescein Avidin D with NeuN and GFAP double staining (Fig 1C)
[2] = tested on: primary cortical cultures; conditions: 25 µM
[3] = then BDNF 100 ng/ml 30 min, relative to basal Bio-TMyc (100%)

Row | SMILES | RhoGDI total levels (RhoGDI; basal, relative to basal conditions with Bio-TMyc (100%)) [%] | RhoGDI total levels (RhoGDI; [3]) [%] | Peptide entry into neurons and astrocytes [1] | Relative cell viability (%) ([2]; 4 h) | Relative cell viability (%) ([2]; 6 h) | Relative cell viability (%) ([2]; 24 h) | RhoGDI total levels (RhoGDI; then NMDA 30 min, relative to basal Bio-TMyc (100%)) [%]
1 | CC[C@H](C)[C@H](NC(=O)[C@H](CC(C)C)NC(=O)[C@H](CCCCN)NC(=O)[C@H](CCC(N)=O)NC(=O)[C@H](CCC(=O)O)NC(=O)[C@H](CCC(=O)O)NC(=O)[C@H](C)NC(=O)[C@H](CCCNC(=N)N)NC(=O)[C@H](CCCNC(=N)N)NC(=O)[C@H](CCCNC(=N)N)NC(=O)[C@H](CCC(N)=O)NC(=O)[C@H](CCCNC(=N)N)NC(=O)[C@H](CCCNC(=N)N)NC(=O)[C@H](CCCCN)NC(=O)[C@H](CCCCN)NC(=O)[C@H](CCCNC(=N)N)NC(=O)CNC(=O)[C@H](Cc1ccc(O)cc1)NC(=O)CCCC[C@@H]1SC[C@@H]2NC(=O)N[C@@H]21)C(=O)N[C@@H](CO)C(=O)N[C@@H](CCC(=O)O)C(=O)N[C@@H](CCC(=O)O)C(=O)N[C@@H](CC(=O)O)C(=O)N[C@@H](CC(C)C)C(=O)N[C@@H](CC(C)C)C(=O)N[C@@H](CCCNC(=N)N)C(N)=O [Bio-TMyc, reference compound] (Biotin-YGRKKRRQRRRAEEQKLISEEDLLR-NH2) | 100 | 92 | found inside both NeuN+ (arrowheads) and GFAP+ (asterisks) cells | 100 | 97 | 97 | 
2 | CC[C@H](C)[C@H](NC(=O)[C@H](CCCCN)NC(=O)[C@H](Cc1c[nH]cn1)NC(=O)[C@H](Cc1ccccc1)NC(=O)[C@H](CC(C)C)NC(=O)[C@@H](NC(=O)[C@H](Cc1ccccc1)NC(=O)[C@H](CCCNC(=N)N)NC(=O)[C@H](CCCNC(=N)N)NC(=O)[C@H](CCCNC(=N)N)NC(=O)[C@H](CCC(N)=O)NC(=O)[C@H](CCCNC(=N)N)NC(=O)[C@H](CCCNC(=N)N)NC(=O)[C@H](CCCCN)NC(=O)[C@H](CCCCN)NC(=O)[C@H](CCCNC(=N)N)NC(=O)CNC(=O)[C@H](Cc1ccc(O)cc1)NC(=O)CCCC[C@@H]1SC[C@@H]2NC(=O)N[C@@H]21)C(C)C)C(=O)N1CCC[C@H]1C(=O)N[C@@H](CC(C)C)C(=O)N[C@@H](CC(=O)O)C(=O)NCC(N)=O [Bio-sTT1Ct] (Biotin-YGRKKRRQRRRFVLFHKIPLDG-NH2) |  | 93 | found inside both NeuN+ (arrowheads) and GFAP+ (asterisks) cells |  | 99 | 103 | 91
